# Test results taken from the SangsterLogP compilation.
# Assay: method code SF-AS, from DOI: 10.1016/0006-2952(66)90048-7
# Conditions: not given
row,logP,Compound
1,1.92,O=C(NC(=O)c1ccccc1O)c1ccccc1O
2,0.6,NC(=O)c1c(O)cccc1O
3,0.86,O=C(NC(=O)c1ccc(O)cc1O)c1ccc(O)cc1O
4,0.32,O=C(O)c1ccccc1NC(=O)c1c(O)cccc1O
5,1.15,O=C(NC(=O)c1c(O)cccc1O)c1c(O)cccc1O
6,-0.15,NC(=O)c1ccc(O)cc1O
7,-0.62,CC(=O)Oc1cccc(OC(C)=O)c1C(N)=O
8,1.38,O=C(NC(=O)c1ccccc1O)c1ccccc1
9,0.74,O=C(Nc1ccccc1C(=O)O)c1ccccc1O

# Same assay, conditions: pH 7.0
row,logD,Compound
1,1.43,O=C(Nc1ccccc1)c1c(O)cccc1O
2,0.89,NC(=O)c1ccccc1O
